Measured values taken from patent publication US20060257474A1, “Remedies for glomerular diseases” (Kowa Co., Ltd., priority 2002, published 2006).
Where a name gives a salt, the structure may show the parent alone.

Test system: progressive anti-Thy-1 nephritic rat
Assay: Pharmacological test to a progressive anti-Thy-1 nephritic rat: total amount of protein excretion in urine
Assay type: in vivo, Wistar female rats
Conditions: 18 h urine
Experimental: Wistar female rats (5 weeks of age, purchased from Japan SLC Co., Ltd.) were quarantined and acclimatized for 4 days and then used for the test. First, a right kidney of the rat was removed through a flank incision under anesthesia with pentobarbital. After 2 weeks passed, an anti-Thy-1 antibody (monoclonal antibody 1-22-3; purchased from […] Laboratories Co., Ltd.) was intravenously administered (500 μg/rat) into the tail vein to thereby bring about progressive renal damage, and the following tests 1 to 3 were immediately investigated. […] Control group (antibody-treated and compound-non-administered group): N=8, an antibody-non-treated group: N=6. Test 2: dilazep hydrochloride (10 mg/kg) dissolved in a physiological saline was continuously intraperitoneally administered for 10 weeks. Control group (antibody-treated and compound-non-administered group): N=8, an antibody-non-treated group: N=6. […] Control group (antibody-treated and compound-non-administered group): N=10, an antibody-non-treated group: N=6. In each test, after administering the drugs for 10 weeks, urine was taken for 18 hours by means of a metabolic cage (Sugiyama Gen Co., Ltd.) to measure the total amount of protein excretion in urine.

## O=C([O-])C[C@H](O)C[C@H](O)/C=C/c1c(C2CC2)nc2ccccc2c1-c1ccc(F)cc1.O=C([O-])C[C@H](O)C[C@H](O)/C=C/c1c(C2CC2)nc2ccccc2c1-c1ccc(F)cc1.[Ca+2] [pitavastatin calcium]
Pitavastatin calcium alone, 10 mg/kg orally for 10 weeks, vs compound-non-administered control group (FIG. 1)
  total amount of protein excretion in urine: almost the same as that of the compound-non-administered group in the control

## COc1cc(C(=O)OCCCN2CCCN(CCCOC(=O)c3cc(OC)c(OC)c(OC)c3)CC2)cc(OC)c1OC [dilazep hydrochloride]
Dilazep hydrochloride alone, 10 mg/kg intraperitoneally for 10 weeks, vs compound-non-administered control group (FIG. 2)
  total amount of protein excretion in urine: almost the same as that of the compound-non-administered group in the control
